According to patent US11167034B2, “Polymeric paste compositions for drug delivery” (The University of British Columbia, priority 2017, dated 2021):

Key:
[1] = In vitro drug release assay from polymeric paste (RP-HPLC-UV); assay type: physicochemical; settings: for drug released by day 50: PEG:PLGA 63:37 and PEG:PLGA:Diblock 50:37:13 pastes, 1% docetaxel, 4% enzalutamide, FIG. 12A, 12B; for drug released by day 7: 8% w/w lidocaine
Experimental: The drug-loaded paste can be aliquoted for in vitro release studies. Paste (50-100 mg) is deposited at the bottom of a test tube and release medium is added (5-10 mL, sink conditions). Release medium is phosphate buffered saline (PBS, 10 mM, pH 7.4)) or PBS containing 1% Albumin. The test tubes are kept in a 37° C. incubator until the end of the study. Release samples are taken at appropriate time points by replacing the complete release medium (supernatant) and analyzing it for total drug using Reversed phase high-performance liquid chromatography with ultraviolet (UV) detection (RP-HPLC-UV).

[2] = Kidney pelvis injection of gemcitabine paste; assay type: in vivo, pigs; settings: 5% gemcitabine in sodium hyaluronate containing paste, pig kidney pelvis
Experimental: After placement of a ureteral catheter, three pigs received an injection of 1-2 mL of polymeric paste into the kidney pelvis. After removal of the ureteral catheter, a urinary catheter was placed and urine collected for 3 h intervals over 24 h. Blood was collected from an ear vein over 24 h and gemcitabine concentrations were determined using ultra high performance liquid chromatography tandem mass spectrometry (UHPLC-MS/MS).
The drug gemcitabine was incorporated at 5% (m/m) in the sodium hyaluronate containing paste. This paste was injected through the 5 F catheter into the kidney pelvis of a pig.

[3] = Local delivery of lidocaine paste subcutaneously in rats, serum lidocaine; assay type: in vivo; settings: for maximum serum concentration: subcutaneous, rats
Experimental: Five groups of rats (male, Sprague Dawley™) with six animals in each group received one injection of paste formulation (0.1 mL) subcutaneously in their flank. The paste formulation was based on a 50:50 mixture of PEG 300™ and PLGA. Lidocaine was incorporated into the paste at 80, 100, 120, 140, and 160 mg per g of paste. The corresponding doses for each group were 23, 29, 36, 40 and 45 mg of Lidocaine per kg.
Blood was collected from the saphenous vein over four weeks at 0, 0.25, 1, 4, 24, 48, 168 336, 504 and 672 hours after injection. Lidocaine concentrations in rat serum were determined using ultra high performance liquid chromatography tandem mass spectrometry (UHPLC-MS/MS). A non-compartmental analysis was then applied to each data set using Phoenix 64™ (Build 6.3.0.395) WinNonlin 63™ to determine relevant pharmacokinetic parameters.
Five groups of rats (male, Sprague Dawley) with six animals in each group received one injection of paste formulation (0.1 mL) subcutaneously in their flank. The paste formulation was based on a 50:50 mixture of PEG 300™ and PLGA. Lidocaine was incorporated into the paste at 80, 100, 120, 140, and 160 mg per g of paste. The corresponding doses for each group were 23, 29, 36, 40 and 45 mg of lidocaine per kg.

[4] = single local injection, regional delivery of lidocaine; cited from earlier work
[5] = PEG:PLGA:Diblock 50:37:13, lidocaine 8%, cephalexin 2%, ibuprofen 5%, FIG. 18
[6] = PEG:PLGA:Diblock 50:37:13, Tamsulosin 2% w/w, FIG. 17
[7] = PEG:PLGA:Diblock 50:37:13, lidocaine 10%, desoximetasone 1%, FIG. 14
[8] = PEG:PLGA 50:50 paste, docetaxel 4%, bicalutamide 4%, VPC-27 10%, FIG. 3A
[9] = PEG:PLGA:Diblock 50:37:13, docetaxel 0.25%, bicalutamide 4%, VPC-27 4%, FIG. 5
[10] = high diblock concentration (PEG:PLGA:Diblock 50:25:25), docetaxel 0.5%, FIG. 6D
[11] = low diblock concentration (PEG:PLGA:Diblock 50:43:7), docetaxel 0.5%, FIG. 6A

CC1=C(C(=O)O)N2C(=O)[C@@H](NC(=O)[C@H](N)c3ccccc3)[C@H]2SC1 [Cephalexin]
drug release at 1 day ([1]; PEG:PLGA:Diblock 50:37:13, cephalexin between 2 and 19% loading, PBS without albumin, FIG. 10): almost all drug was released
drug released, maximum on day 3 [1, 5]: 80%

CC(C)Cc1ccc(C(C)C(=O)O)cc1 (stereo not shown) [Ibuprofen]
drug released by day 35 [1, 5]: approximately 70%
drug released, burst release by day one [1, 5]: 54%

CCOc1ccccc1OCCN[C@H](C)Cc1ccc(OC)c(S(N)(=O)=O)c1 [Tamsulosin]
drug released by day 6 [1, 6]: 70%
drug released on day 21 [1, 6]: 80%
drug released, burst phase on day 1 [1, 6]: 47%

C[C@@H]1C[C@H]2[C@@H]3CCC4=CC(=O)C=C[C@]4(C)[C@@]3(F)[C@@H](O)C[C@]2(C)[C@H]1C(=O)CO [desoximetasone]
drug released by day 35 [1, 7]: 100%
drug released, burst within the first day [1, 7]: 50%

CC(=O)O[C@@]12CO[C@@H]1C[C@H](O)[C@@]1(C)C(=O)[C@H](O)C3=C(C)[C@@H](OC(=O)[C@H](O)[C@@H](NC(=O)OC(C)(C)C)c4ccccc4)C[C@@](O)([C@@H](OC(=O)c4ccccc4)[C@H]21)C3(C)C [docetaxel]
drug released, fast burst over 5 days [1, 8]: 10%
further encapsulated drug released over the next 40 days [1, 8]: 20%
drug release on day 18 ([1]; PEG:PLGA 55:45 paste without diblock, docetaxel 1%, bicalutamide 4%, VPC-27 4%, FIG. 8): around 10%
drug released by day 50 [1]: approximately 50%
drug released after one day [1, 9]: 24%
drug released on day 35 [1, 9]: 32%
drug release at day 8 ([1]; PEG:PLGA:Diblock 50:37:13, docetaxel 1%, rapamycin 1%, VPC-27 4%, FIG. 9): ~45%
drug released on day 21 [1, 10]: 78%
drug released, burst on day 1 [1, 10]: 67%
drug released on day 21 [1, 11]: 34%
drug released, burst on day 1 [1, 11]: 20%

CNC(=O)c1ccc(N2C(=S)N(c3ccc(C#N)c(C(F)(F)F)c3)C(=O)C2(C)C)cc1F [enzalutamide]
drug released by day 50 [1]: approximately 40%

Nc1ccn([C@@H]2O[C@H](CO)[C@@H](O)C2(F)F)c(=O)n1 [gemcitabine]
blockage of the ureter [2]: did not result in any blockage of the ureter
Gemcitabine levels in urine ([2]; FIG. 25A): initially high and levelled off after 5-7 hours
Serum gemcitabine levels ([2]; FIG. 25B): very low, but detectable in all pigs

CCN(CC)CC(=O)Nc1c(C)cccc1C [lidocaine]
maximum serum concentration ([3]; 80 mg/g paste (PEG 300:PLGA 50:50), 23 mg/kg): 557.26 ± 81.15 ng/mL
maximum serum concentration ([3]; 100 mg/g paste (PEG 300:PLGA 50:50), 29 mg/kg): 578.90 ± 162.59 ng/mL
maximum serum concentration ([3]; 120 mg/g paste (PEG 300:PLGA 50:50), 36 mg/kg): 638.03 ± 190.61 ng/mL
maximum serum concentration ([3]; 140 mg/g paste (PEG 300:PLGA 50:50), 40 mg/kg): 855.98 ± 196.18 ng/mL
maximum serum concentration ([3]; 160 mg/g paste (PEG 300:PLGA 50:50), 45 mg/kg): 1148.88 ± 838.97 ng/mL
maximum concentrations detected in serum in each group ([3]; all studied strengths, below upper limit of therapeutic range): < 5000 ng/mL
drug released by day 7 ([1]; PEG:PLGA:Diblock 50:37:13, crescent shape): 88%
drug released by day 7 ([1]; PEG:PLGA:Diblock 50:37:13, cylinder shape): 92%
drug released by day 7 ([1]; PEG:PLGA:Diblock 50:37:13, hemisphere shape): approximately 65%
drug released by day 35 [1, 5]: approximately 70%
drug released, burst release by day one [1, 5]: 54%
drug released by day 35 [1, 7]: 80%
drug released, burst within the first day [1, 7]: 50%
drug released by day 18 ([1]; all PEG:PLGA pastes without diblock (50:50, 55:45, 60:40), 8% lidocaine, FIG. 15): 100%
duration [4]: 60 to 120 min
onset [4]: 3 min
